The source of these data is US5227508A, “3-deoxy-3-substituted analogs of phosphatidylinositol” (Mayo Foundation for Medical Education and Research, priority 1992, dated 1993).

Read-outs that look alike come from different tables or passages of the source. Bounds are passed on as bounds.

Test [1] deals with normal NIH 3T3 cells and several oncogene transformed NIH 3T3 cell lines. The conditions noted are these: in culture; prior work (A. P. Kozikowski); cited from earlier work.
The subject of test [2] is v-sis oncogene-expressing NIH 3T3 cells. In words: Cell growth inhibition, v-sis oncogene-expressing NIH 3T3 cells, 3 days. As to conditions: for IC50: Mus musculus, NIH3T3, 72 h, 3 days. Format: cell-based. Here is the method: (§1) Wild type NIH 3T3 cells and v-sis oncogene-expressing NIH 3T3 cells were maintained in bulk culture in DMEM with 10% heat inactivated calf serum and passaged using 0.05% trypsin and 0.5 mM EDTA. For cell growth assays, the cells were plated at a density of 5×10^3 cells in 1.6 cm diameter culture wells in 0.5 ml DMEM containing 10% heat inactivated calf serum and allowed to attach to the surface of the well for 24 hr. The medium was then replaced with fresh medium containing the myo-inositol analogues. […] Adherent cells were harvested after 3 days and were counted using an automated cell counter. Inhibition of cell growth caused by serial concentrations of analogues was expressed as a percentage of the number of nontreated cells at the end of the 3-day incubation period. Incubations were conducted in quadruplicate. The mean concentration of analogue required to cause 50% inhibition of cell growth (IC50)±S.E. was calculated from nonlinear least-squares regression analysis of the cell-proliferation concentration data (P. L. Appel et al., Cancer Chemother. Pharmacol., 17, 47 (1986)).

Test [3] relates to NIH 3T3 cells (wild type). The experiment in a line: Cell growth inhibition, wild type NIH 3T3 cells, 3 days. The format is cell-based. As to conditions: for IC50: Mus musculus, NIH3T3, 72 h, 3 days. On the procedure:
as §1

Test [4] deals with HT-29 cells. The experiment in a line: Soft agar colony forming assay, HT-29 colon carcinoma, 7 days. As to conditions: Homo sapiens, HT-29, 168 h, medium with 40 μM myo-inositol, read-out: IC50 for inhibition of colony formation. Format: cell-based. On the procedure: The human colon carcinoma cell line, HT-29, was chosen as being representative of a clinically very important, slow growing and chemotherapy resistant human solid tumor. Many human colon cancer lines, including HT-29, have the v-sis oncogene (D. L. Trainer et al., Int. J. Cancer, 41, 287 (1988)). The growth of HT-29 cells was measured by colony formation in the soft agar colony forming assay over 7 days, with automated colony counting using a Omicon 3600 Image Analysis System, as described previously by M. C. Alley et al., 44, 549 (1984).
All soft-agarose cultures were performed in similar fashion. Each 35-mm culture dish contained a base layer consisting of 0.5 ml of standard DMEM culture medium (with 40 μM myo-inositol) with 0.5% agarose. On Day 0, cells in bulk culture were dissociated with trypsin and EDTA, washed once in growth medium, and subcultured by layering 1×10^4 viable cells in 0.5 ml of growth medium with 0.3% agarose over each base layer. Cultures were maintained in cell culture incubators at 37° C., 5% CO2 :95% air, and 100% relative humidity. On Day 1 (24 hr later), an upper layer of 1 ml of growth medium containing drug was applied to each culture. Cell lines formed a sufficient number of detectable colonies (>60 μm diameter) for analysis following 7 days of incubation. […]

Where [5] appears, read: - myo-inositol, ± S.E. of mean, read-out: v-sis NIH IC50.
Where [6] appears, read: - myo-inositol, ± S.E. of mean, read-out: NIH IC50.

On to `O[C@@H]1[C@@H](O)[C@H](O)[C@@H](F)[C@@H](O)[C@H]1O` [3-deoxy-3-fluoro-myo-inositol, reference compound], for which the “cell growth inhibitory activities” value in test [1] was “exhibit cell growth inhibitory activities”. Besides, the 50% inhibitory concentration (IC50) in test [2] (+ myo-inositol, read-out: v-sis NIH IC50 (class symbol)) was > 33000 µM; in test [2] (setting [5]), 1000 µM; in test [3] (+ myo-inositol, read-out: NIH IC50 (class symbol)) it was > 33000 µM; in test [3] (setting [6]), 7000 µM.

On to `CCCCCCCCCCCCCCCC(=O)OC[C@H](COP(=O)(O)O[C@H]1[C@H](O)[C@@H](O)[C@H](O)[C@@H](F)[C@H]1O)OC(=O)CCCCCCCCCCCCCCC` [Compound 7, 3-Deoxy-3-fluoro-D-myo-inositol [(R)-2,3-bis(hexadecanoyloxy)propyl] hydrogen phosphate], for which the IC50 came to 53 ± 9 µM in test [4]; 81 ± 11 µM in test [2] (+ myo-inositol, ± S.E. of mean, read-out: v-sis NIH IC50); 107 ± 15 µM in test [2] (setting [5]); 99 ± 13 µM in test [3] (+ myo-inositol, ± S.E. of mean, read-out: NIH IC50); 110 ± 20 µM in test [3] (setting [6]). Moreover, the “antagonism of growth inhibition by myo-inositol” value was “not antagonized by myo-inositol at physiological concentrations” in test [2] (myo-inositol at physiological concentrations, v-sis NIH 3T3) and “not antagonized by myo-inositol at physiological concentrations” in test [3] (myo-inositol at physiological concentrations, wild type NIH 3T3). The “selectivity for growth inhibition of v-sis compared to wild type NIH 3T3 cell” value in test [2] (v-sis vs wild type NIH 3T3) is listed as “lost”. Besides, in test [3] (wild type NIH 3T3 cells, compared with D-3-deoxy-fluoro-myo-inositol), the “more potent inhibitor of cell growth than the simple myo-inositol analogue” value is on record as “up to 1,000 fold”.

What is called IC50 is the point on the concentration scale where inhibition reaches its midpoint.
